For 33 compounds, inhibition, IC50 and Ki results are on record in ChEMBL document CHEMBL4616721, “Nitrogen-Walk Approach to Explore Bioisosteric Replacements in a Series of Potent A2B Adenosine Receptor Antagonists” (J Med Chem, 2020).

For data set [1], the target named is T1, Adenosine receptor A1 (Homo sapiens) (UniProt P30542).
T1 sequence (whole entry): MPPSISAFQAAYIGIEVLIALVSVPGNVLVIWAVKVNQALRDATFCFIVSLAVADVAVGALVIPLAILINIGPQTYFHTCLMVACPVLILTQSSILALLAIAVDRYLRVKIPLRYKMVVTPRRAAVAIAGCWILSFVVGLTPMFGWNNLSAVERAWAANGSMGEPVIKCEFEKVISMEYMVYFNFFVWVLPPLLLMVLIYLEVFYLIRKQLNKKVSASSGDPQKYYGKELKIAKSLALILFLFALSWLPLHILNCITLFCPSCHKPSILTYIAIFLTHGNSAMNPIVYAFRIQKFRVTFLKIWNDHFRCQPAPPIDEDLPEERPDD
The data set can be described thus: Displacement [3H]DPCPX from human adenosine A1 receptor expressed in CHO cell membranes at 1 uM incubated for 60 mins by scintillation counting method relative to control.

The target in data set [2] is T2, Adenosine receptor A3 (Homo sapiens) (UniProt P0DMS8).
T2 sequence (whole entry): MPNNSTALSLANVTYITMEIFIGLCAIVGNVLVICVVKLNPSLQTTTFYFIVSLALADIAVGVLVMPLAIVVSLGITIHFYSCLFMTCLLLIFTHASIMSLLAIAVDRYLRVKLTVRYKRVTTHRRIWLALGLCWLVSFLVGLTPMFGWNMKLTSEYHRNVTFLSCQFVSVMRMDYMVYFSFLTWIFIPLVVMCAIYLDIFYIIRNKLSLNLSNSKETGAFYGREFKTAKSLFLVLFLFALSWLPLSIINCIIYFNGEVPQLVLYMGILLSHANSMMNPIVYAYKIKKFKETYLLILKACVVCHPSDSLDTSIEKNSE
The data set can be described thus: Displacement [3H]NECA from adenosine A3 receptor in human HeLa cell membranes at 1 uM incubated for 180 mins by scintillation counting method relative to control.

In data set [3] the target is Adenosine receptor A2a (Homo sapiens, UniProt P29274). The data set can be described thus: Displacement [3H]ZM241385 from adenosine A2A receptor in human HeLa cell membranes at 1 uM incubated for 30 mins by scintillation counting method relative to control.
Adenosine receptor A2a, sequence (P29274 whole entry): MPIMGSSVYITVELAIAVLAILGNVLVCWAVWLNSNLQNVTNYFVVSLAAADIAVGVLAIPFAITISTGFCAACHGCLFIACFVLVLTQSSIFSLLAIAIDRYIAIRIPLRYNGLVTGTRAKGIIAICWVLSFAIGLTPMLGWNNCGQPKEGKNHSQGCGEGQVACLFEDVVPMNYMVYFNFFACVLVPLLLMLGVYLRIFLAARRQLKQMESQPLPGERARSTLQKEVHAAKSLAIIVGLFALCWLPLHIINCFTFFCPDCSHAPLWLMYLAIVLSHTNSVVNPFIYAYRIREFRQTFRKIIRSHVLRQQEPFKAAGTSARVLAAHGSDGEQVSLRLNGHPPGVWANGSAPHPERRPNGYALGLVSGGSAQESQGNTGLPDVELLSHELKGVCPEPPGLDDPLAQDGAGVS
The target of data set [4] is T3, CYP2D6 (Homo sapiens, UniProt P10635). The data set can be described thus: Inhibition of CYP2D6 (unknown origin) expressed in insect cell microsomes at 10 uM using dibenzylfluorescein substrate by fluorescence based assay relative to control. Format: ADME. The conditions noted are these: insect cell microsomes expressing CYP2D6, probe dibenzylfluorescein.
T3 sequence (P10635 whole entry): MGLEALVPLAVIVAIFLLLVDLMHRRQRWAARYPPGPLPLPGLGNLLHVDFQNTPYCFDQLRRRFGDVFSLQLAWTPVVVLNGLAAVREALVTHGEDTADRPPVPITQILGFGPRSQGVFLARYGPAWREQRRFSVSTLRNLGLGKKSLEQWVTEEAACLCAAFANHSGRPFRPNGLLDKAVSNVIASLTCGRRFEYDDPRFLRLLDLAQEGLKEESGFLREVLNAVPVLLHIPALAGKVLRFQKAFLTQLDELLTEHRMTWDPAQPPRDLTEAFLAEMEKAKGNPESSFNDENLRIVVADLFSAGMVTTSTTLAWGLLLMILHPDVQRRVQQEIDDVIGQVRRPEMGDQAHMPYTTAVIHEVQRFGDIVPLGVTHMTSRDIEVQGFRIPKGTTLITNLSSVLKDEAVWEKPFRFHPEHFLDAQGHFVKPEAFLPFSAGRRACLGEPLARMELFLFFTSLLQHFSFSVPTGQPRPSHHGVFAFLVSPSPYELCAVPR
In data set [5] the target is T3, CYP2D6. The data set can be described thus: Inhibition of CYP2D6 (unknown origin) expressed in insect cell microsomes at 1 uM using dibenzylfluorescein substrate by fluorescence based assay relative to control. Format: ADME. Conditions: insect cell microsomes expressing CYP2D6, probe dibenzylfluorescein.
Data set [6] deals with Cytochrome P450 3A4 (Homo sapiens, UniProt P08684). The data set is described as follows: Inhibition of CYP3A4 (unknown origin) expressed in insect cell microsomes using dibenzylfluorescein substrate by fluorescence based assay. The data set is classed as ADME.
Cytochrome P450 3A4, sequence (P08684 whole entry): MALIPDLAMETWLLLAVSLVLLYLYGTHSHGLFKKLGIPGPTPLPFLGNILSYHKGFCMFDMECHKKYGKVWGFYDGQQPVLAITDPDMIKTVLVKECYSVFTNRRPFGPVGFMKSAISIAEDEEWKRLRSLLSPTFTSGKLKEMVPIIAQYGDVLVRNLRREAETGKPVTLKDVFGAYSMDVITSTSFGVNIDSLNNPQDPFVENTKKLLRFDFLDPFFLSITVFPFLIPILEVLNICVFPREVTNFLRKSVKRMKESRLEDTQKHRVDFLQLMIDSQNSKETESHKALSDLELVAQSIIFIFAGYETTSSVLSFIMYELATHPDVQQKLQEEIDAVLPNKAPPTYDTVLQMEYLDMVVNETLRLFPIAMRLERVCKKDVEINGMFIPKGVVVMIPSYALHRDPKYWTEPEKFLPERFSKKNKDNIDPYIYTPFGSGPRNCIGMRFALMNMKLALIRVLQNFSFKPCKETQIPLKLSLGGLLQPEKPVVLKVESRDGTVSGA
Data set [7] concerns the target T4, Adenosine receptor A2b (Homo sapiens, UniProt P29275).
T4 sequence (P29275 whole entry): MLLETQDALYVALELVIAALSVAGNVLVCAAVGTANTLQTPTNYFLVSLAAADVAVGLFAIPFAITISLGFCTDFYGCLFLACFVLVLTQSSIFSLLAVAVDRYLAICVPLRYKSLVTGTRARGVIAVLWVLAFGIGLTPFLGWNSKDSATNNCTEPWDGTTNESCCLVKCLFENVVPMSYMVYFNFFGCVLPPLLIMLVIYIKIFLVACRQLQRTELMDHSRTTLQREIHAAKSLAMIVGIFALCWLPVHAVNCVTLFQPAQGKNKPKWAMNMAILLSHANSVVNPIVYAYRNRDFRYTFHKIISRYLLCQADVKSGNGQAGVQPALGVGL
The data set is described as follows: Displacement [3H]DPCPX from human adenosine A2B receptor expressed in HEK293 cell membranes incubated for 60 mins by scintillation counting method.

Turning to `CC1=C(C(=O)OC(C)C)Cn2c(nc3ccccc32)N1`, the inhibition in data set [1] came out at 31%; in data set [2] it was 13%; in data set [3] it was 4%.

Turning to `CCOC(=O)C1=C(C)Nc2nc3ccccc3n2C1`, the inhibition in data set [1] is 34%; in data set [2], 9%; in data set [3] it was 11%.

Take `CC1=C(C(=O)OC(C)C)C(c2ccoc2)n2c(nc3ccccc32)N1` (racemic): the inhibition at 10 µM in data set [4] worked out at 31%. In data set [5], the inhibition at 1 µM stood at 8%. The compound further displayed an IC50 in data set [6] of 2680 nM. Moreover, the inhibition in data set [3] was determined as 22%.

Compound `CC1=C(C(=O)OC(C)C)C(c2ccco2)n2c(nc3ccccc32)N1` (racemic) gave an inhibition at 10 µM in data set [4] of 35%. Moreover, in data set [5], the inhibition at 1 µM came out at 5%. For the same compound, in data set [6], the IC50 was determined as 2900 nM. The same compound had an inhibition in data set [3] of 25%.

Take `CC1=C(C(=O)OC(C)C)C(c2ccc[nH]2)n2c(nc3ccccc32)N1` (racemic): the inhibition in data set [1] amounted to 38%; in data set [2] it was 1%; in data set [3], 19%. Moreover, in data set [7], the Ki was determined as 31.3 nM.

In the case of `CC1=C(C(=O)OC(C)C)C(c2cncs2)n2c(nc3ccccc32)N1` (racemic), the inhibition in data set [1] came to 2%; in data set [2] it was 5%; in data set [3], 3%. The compound also displayed an inhibition constant Ki in data set [7] of 68.3 nM.

Take `CC1=C(C(=O)OC(C)C)C(c2cc[nH]n2)n2c(nc3ccccc32)N1` (racemic): the inhibition in data set [1] was determined as 1%; in data set [2], 2%; in data set [3], 7%. In addition, the Ki in data set [7] was 1100 nM.

`CC1=C(C(=O)OC(C)C)C(c2ccns2)n2c(nc3ccccc32)N1` (racemic): the inhibition in data set [1] worked out at 24%; in data set [2], 4%; in data set [3] it was 18%. The compound further had a Ki in data set [7] of 175 nM.

For the compound `CCOC(=O)C1=C(C)Nc2nc3ccccc3n2C1c1cc[nH]n1` (racemic), the inhibition in data set [1] is 8%; in data set [2], 1%; in data set [3], 11%. Further, the Ki in data set [7] stood at 707 nM.

Turning to `CCOC(=O)C1=C(C)Nc2nc3ccccc3n2C1c1cncs1` (racemic), the inhibition worked out at 32% in data set [1], 1% in data set [2] and 1% in data set [3]. Further, the affinity in data set [7] corresponds to a Ki of 215 nM.

For `CCOC(=O)C1=C(C)Nc2nc3ccccc3n2C1c1cnoc1` (racemic), the inhibition was found to be 21% in data set [1], 13% in data set [2] and 30% in data set [3]. In data set [7], this compound displayed a Ki of 23.4 nM. The same compound displayed an inhibition at 10 µM in data set [4] of 37%. In addition, in data set [5], the inhibition at 1 µM is 6%. Also, in data set [6], half-maximal inhibition (IC50) was put at 4920 nM.

With `CCOC(=O)C1=C(C)Nc2nc3ccccc3n2C1c1ccno1` (racemic), the inhibition in data set [1] turned out to be 1%; in data set [2] it was 11%; in data set [3], 1%. For the same compound, the Ki in data set [7] was determined as 714 nM.

Consider `CCOC(=O)C1=C(C)Nc2nc3ccccc3n2C1c1ccc[nH]1` (racemic), for which the results for the inhibition in data set [1], in data set [2] and in data set [3] were 45%, 9% and 2%, respectively. This compound had a Ki in data set [7] of 49.6 nM.

As to `CC1=C(C(=O)OC(C)C)C(c2ccno2)n2c(nc3ccccc32)N1` (racemic), the inhibition in data set [1] worked out at 37%; in data set [2], 1%; in data set [3] it was 7%. In addition, the affinity in data set [7], expressed as Ki, was 1030 nM.

Consider `CC1=C(C(=O)OC(C)C)C(c2cnsc2)n2c(nc3ccccc32)N1` (racemic), for which the inhibition amounted to 9% in data set [1], 14% in data set [2] and 11% in data set [3]. The same compound gave a Ki in data set [7] of 278 nM.

`CCOC(=O)C1=C(C)Nc2nc3ccccc3n2C1c1cc[nH]c1` (racemic): the inhibition in data set [1] was determined as 26%; in data set [2] it was 1%; in data set [3] it was 7%. The same compound gave a Ki in data set [7] of 449 nM.

In the case of `CCOC(=O)C1=C(C)Nc2nc3ccccc3n2C1c1ccon1` (racemic), the inhibition was 2% in data set [1], 3% in data set [2] and 1% in data set [3]. The compound further came in with a Ki in data set [7] of 789 nM.

Turning to `CC1=C(C(=O)OC(C)C)C(c2ccon2)n2c(nc3ccccc32)N1` (racemic), the inhibition is 1% in data set [1], 4% in data set [2] and 2% in data set [3]. The same compound had a Ki in data set [7] of 721 nM.

With `CC1=C(C(=O)OC(C)C)C(c2cnoc2)n2c(nc3ccccc32)N1` (racemic), the inhibition in data set [1] stood at 1%; in data set [2] it was 5%; in data set [3], 2%. This compound returned a Ki in data set [7] of 29.6 nM.

In the case of `CC1=C(C(=O)OC(C)C)C(c2nccs2)n2c(nc3ccccc32)N1` (racemic), the inhibition in data set [1] came out at 5%; in data set [2], 20%; in data set [3], 4%. Moreover, the Ki in data set [7] worked out at 753 nM.

With `CC1=C(C(=O)OC(C)C)C(c2cc[nH]c2)n2c(nc3ccccc32)N1` (racemic), the inhibition in data set [1] stood at 19%; in data set [2], 2%; in data set [3], 1%. The compound further registered a Ki in data set [7] of 517 nM.

With `CC1=C(C(=O)OC(C)C)C(C2CCCC2)n2c(nc3ccccc32)N1` (racemic), the inhibition was found to be 14% in data set [1], 23% in data set [2] and 2% in data set [3].

`CC1=C(C(=O)OC(C)C)C(c2c[nH]cn2)n2c(nc3ccccc32)N1` (racemic): the values for the inhibition in data set [1], in data set [2] and in data set [3] were 5%, 8% and 4%, respectively.

For the compound `CC1=C(C(=O)OC(C)C)C(c2ccc(C)o2)n2c(nc3ccccc32)N1` (racemic), the inhibition in data set [1] amounted to 14%; in data set [2], 1%; in data set [3], 3%.

In the case of `CC1=C(C(=O)OC(C)C)C(c2ccccc2)n2c(nc3ccccc32)N1` (racemic), the inhibition in data set [1] is 9%; in data set [2] it was 9%; in data set [3], 3%.

As for `CC1=C(C(=O)OC(C)C)C(c2cscn2)n2c(nc3ccccc32)N1` (racemic), the inhibition in data set [1] is 1%; in data set [2], 18%; in data set [3], 3%.

On to `CC1=C(C(=O)OC(C)C)C(c2ncc[nH]2)n2c(nc3ccccc32)N1` (racemic), for which the inhibition in data set [1] stood at 2%; in data set [2] it was 2%; in data set [3], 4%.

For `CCOC(=O)C1=C(C)Nc2nc3ccccc3n2C1C1CCCC1` (racemic), the inhibition in data set [1] is 11%; in data set [2] it was 17%; in data set [3], 10%.

For the compound `CCOC(=O)C1=C(C)Nc2nc3ccccc3n2C1c1c[nH]cn1` (racemic), the figures for the inhibition in data set [1], in data set [2] and in data set [3] were 7%, 3% and 16%, respectively.

For the compound `CCOC(=O)C1=C(C)Nc2nc3ccccc3n2C1c1ccc(C)o1` (racemic), the inhibition in data set [1] turned out to be 14%; in data set [2] it was 3%; in data set [3], 1%.

Regarding `CCOC(=O)C1=C(C)Nc2nc3ccccc3n2C1c1ccccc1` (racemic), the inhibition amounted to 12% in data set [1], 15% in data set [2] and 9% in data set [3].

Take `CCOC(=O)C1=C(C)Nc2nc3ccccc3n2C1c1cnsc1` (racemic): the inhibition in data set [1] is 20%; in data set [2], 14%; in data set [3], 11%.

Take `CCOC(=O)C1=C(C)Nc2nc3ccccc3n2C1c1cscn1` (racemic): the inhibition came to 1% in data set [1], 2% in data set [2] and 1% in data set [3].

What is called inhibition is the relative decrease from the control value, in per cent. A lower inhibition goes with little suppression. What is called IC50 is the concentration at which inhibition is half-maximal. Low values mean greater potency in that assay, high ones weaker potency in that assay. For orientation: Ki means a dissociation constant, usually derived from enzyme kinetics or from competition with a known ligand. A high value points to weaker binding.
